Experimental data taken from patent US20230123601A1, “PHARMACEUTICAL COMBINATION OF ANTIVIRAL AGENTS TARGETING HBV AND/OR AN IMMUNE MODULATOR FOR TREATMENT OF HBV” (priority 2019, published 2023).
pEC50: −log10 of the molar value. Where two headings read alike, the source gives them in different places. Strand notation (5' to 3'): a small letter for the sugar, then the base; units joined by * are phosphorothioate-linked, units joined directly phosphodiester-linked; [ ] holds rarer units or linkages, { } end groups; capitals alone tell only the bases. {MOP} = methoxy, phosphonate-4'-oxy on the 2'-O-methyluridine at position 1; m = 2'-O-methyl; f = 2'-fluoro

Columns and labels:
HBV [1] = type: in vivo; conditions: HDI mice; for circulating HBsAg / hepatic viral RNAs: entecavir 500 ng/kg PO daily for 14 days alone
Method: The RNAi oligonucleotides targeting the S antigen impact both the viral polymerase and HBsAg protein. In this study, the combinational effects of HBV(s)-219P2 as a monotherapy and combinational treatment with entecavir was explored in an HBV-expressing mouse (HDI model) for antiviral activity.
Mice were administered daily oral dosing of 500 ng/kg Entecavir (ETV) for 14 days. A single subcutaneous administration of HBV(s)-219P2 took place. Circulating viral load (HBV DNA) was measured by qPCR (FIG. 25A), plasma HBsAg level was measured by ELISA (FIG. 25B), and liver HBV mRNA and pgRNA levels were measured by qPCR.

HBV [2] = test: HBsAg levels in HDI-mice after subcutaneous oligonucleotide; type: in vivo
From the text: HBsAg levels were monitored in both oligonucleotide treated and untreated control mice for a period spanning 147 days.

[3] = test system: HBV Genotype A S ORF target sites fused to reporter gene; test: psiCHECK-2 dual-luciferase reporter mismatch assay in HeLa cells; type: cell-based
From the text: A psiCHECK-2 dual-luciferase reporter system was utilized to evaluate the effects of a mismatch at a selected position in each of HBV-217, HBV-219, HBV-254, HBV-255, and HBV-258. The psiCHECK vector enables monitoring of changes in expression of a target gene fused to a reporter gene, where active RNAi degrades the fusion construct to produce a corresponding decrease in reporter signal. The diagram in FIG. 16 generically depicts the vector utilized in these assays. The parent partial reporter sequence contained 120 base-pair fragments from Genotype A (GenBank: AM282986.1) around target sites of interest in the S ORF. […]
The psiCHECK2 reporter assays with each oligonucleotide were conducted over a three-day period using a 6-point, 5-fold serial dilution starting at 1 nM transfected in HeLa cells. […] The cells were then incubated at 37° C. in a CO2 incubator until the cells were ready to harvest and assay for the target gene. On day 3, 100 μL of Dual-Glo Reagent was added to each well, mixed and incubated for 10 minutes before reading the luminescence. A further 100 μL of Dual-Glo Stop & Glo was added to each well, mixed and incubated for 10 minutes before reading the luminescence. […] The EC50s values determined for each oligonucleotide are shown in Table 15 with additional specifications.

| Molecule | mean decrease in HBV DNA detected in plasma relative to PBS (HBV [1]; entecavir 500 ng/kg PO daily for 14 days) [log] | circulating HBsAg (HBV [1]) | hepatic viral RNAs (HBV [1]) | circulating HBsAg (HBV [1]; listed as entecavir) | hepatic viral RNAs (HBV [1]; listed as entecavir) | HBsAg levels (HBV [2]; HDI-mice, single subcutaneous dose evaluation) | HBsAg levels (HBV [2]; mice, QW×3, 3 mg/kg subcutaneous, monitored 147 days) | pEC50 ([3]; mismatch duplex, single mismatch to reporter plasmid, read-out: MM EC50s) | pEC50 ([3]; parent duplex, 100% homology to reporter plasmid, read-out: Parent EC50s) |
| --- | --- | --- | --- | --- | --- | --- | --- | --- | --- |
| C=C1[C@H](CO)[C@@H](O)C[C@@H]1n1cnc2c(=O)[nH]c(N)nc21 [Entecavir] | ~1.6 | no efficacy | no efficacy | No significant decrease | No significant decrease | – | – | – | – |
| HBV-254: HBsAg-targeting duplex oligonucleotide, sense SEQ ID NO: 55, antisense SEQ ID NO: 56 (sense GUGGUGGACUUCUCUCAAUAGCAGCCGAAAGGCUGC; antisense {MOP}-mU*fA*fU*mUfGmAfGfAmGfAmAfGmUfCmCfAmCmCfAmC*mG*mG; sense: chemistry not given here; tetraloop form) | – | – | – | – | – | systematically reduced HBsAg levels in mice with increasing dosage | Diminished HBsAg levels persisted in treated mice throughout the entirety of the study | 10.02 | 10.43 |
